The OPERA property sets (Mansouri et al. 2018)

Row | Compound | logP
1 | CC(=O)C=Cc1cccc(C(F)(F)F)c1 | 3.03
2 | CC(=O)C=Cc1ccccc1C | 2.6
3 | COc1ccccc1C=CC(=O)C(F)(F)F | 3.39
4 | CC(=O)C=Cc1ccccc1O | 2.19
5 | CC(=O)C=Cc1cccc(C)c1 | 2.68
6 | CC(=O)C=Cc1ccc(OC(C)=O)cc1 | 1.63
7 | CC(=O)C=Cc1cccc(Cl)c1 | 2.81
8 | N#Cc1cccc(C=CC(=O)C(F)(F)F)c1 | 2.45
9 | CC(=O)C=Cc1cccc(C#N)c1 | 1.59
10 | N#Cc1ccc(C=CC(=O)C(F)(F)F)cc1 | 2.42
11 | CC(=O)C=Cc1ccc(C#N)cc1 | 1.64
12 | CC(=O)C=Cc1ccc([N+](=O)[O-])cc1 | 1.9
13 | COc1ccc(C=CC(C)=O)cc1 | 2.25
14 | COc1cccc(C=CC(=O)C(F)(F)F)c1 | 3.05
15 | COc1cccc(C=CC(C)=O)c1 | 2.27
16 | CC(=O)C=Cc1ccc(Cl)cc1 | 2.8
17 | CC(=O)C=Cc1cccc(F)c1 | 2.25
18 | O=C(C=Cc1cccc([N+](=O)[O-])c1)C(F)(F)F | 2.66
19 | CC(=O)C=Cc1cccc([N+](=O)[O-])c1 | 1.88

Row | Compound | logP
20 | CC(=O)C=Cc1ccc(C(F)(F)F)cc1 | 3.13
21 | CCOc1ccc(C=CC(C)=O)cc1 | 2.73
22 | CC(=O)C=Cc1ccc(C)cc1 | 2.65
23 | CC(=O)C=Cc1ccccc1C(F)(F)F | 3.14
24 | CC(=O)C=Cc1ccc(F)cc1 | 2.22
25 | COc1ccccc1C=CC(C)=O | 2.42
26 | O=C(C=Cc1cccc(Cl)c1)C(F)(F)F | 3.58
27 | CC(=O)C=Cc1ccccc1Cl | 2.85
28 | CC(=O)C=Cc1ccc(O)cc1 | 1.86
29 | COc1ccc(C=CC(=O)C(F)(F)F)cc1 | 3.33
30 | CCc1ccc(C=CC(C)=O)cc1 | 3.26
31 | O=C(C=Cc1ccccc1Cl)C(F)(F)F | 3.5
32 | O=C(C=Cc1ccccc1)C(F)(F)F | 3.01
33 | CC(=O)C=Cc1ccc(Br)cc1 | 3.03
34 | CC(=O)C=Cc1ccc(N(C)C)cc1 | 2.66
35 | CC(=O)C=Cc1ccccc1F | 2.34
36 | O=C(C=Cc1ccc(Cl)cc1)C(F)(F)F | 3.63
37 | CC(=O)C=Cc1cccc(Br)c1 | 3.02
